Measurements reported in ChEMBL document CHEMBL1131475, “Discovery of ritonavir, a potent inhibitor of HIV protease with high oral bioavailability and clinical efficacy” (J Med Chem, 1998).

Assays:
[1] = Oral bioavailability in rat; type: ADME, organism-based; conditions: in vivo
in vivo [2] = conditions: rat, plasma, po
in vivo [3] = conditions: rat, plasma, po, 10 mg/kg
in vivo [4] = conditions: rat, plasma, po; remark: listed apart in the source
in vivo [5] = conditions: rat, plasma, iv

Row | bioavailability [1] | AUC (in vivo [2]) | Cmax (in vivo [3]) | Tmax (in vivo [4]) | half-life (in vivo [5]) | Structure (SMILES)
1 | 5% | 200 ng·h/mL | 460 nM | 12 min | 19.8 min | CC(C)c1nc(COC(=O)NC(C(=O)N[C@@H](Cc2ccccc2)C[C@H](O)[C@H](Cc2ccccc2)NC(=O)OCc2cccnc2)C(C)C)co1 (stereo not given in full)
2 | 16% | 950 ng·h/mL | 2420 nM | 15 min | 13.2 min | Cc1cccc(CN(C)C(=O)NC(C(=O)N[C@@H](Cc2ccccc2)[C@@H](O)C[C@H](Cc2ccccc2)NC(=O)OCc2cccnc2)C(C)C)n1 (stereo not given in full)
3 | 10% | 320 ng·h/mL | 1750 nM | 6 min | 13.2 min | COc1ccc(CN(C)C(=O)NC(C(=O)N[C@@H](Cc2ccccc2)C[C@H](O)[C@H](Cc2ccccc2)NC(=O)OCc2cccnc2)C(C)C)cn1 (stereo not given in full)
4 | 10% | 630 ng·h/mL | 1790 nM | 13.8 min | 16.2 min | COCc1nc(COC(=O)NC(C(=O)N[C@@H](Cc2ccccc2)[C@@H](O)C[C@H](Cc2ccccc2)NC(=O)OCc2cccnc2)C(C)C)cs1 (stereo not given in full)
5 | 9.3% | 500 ng·h/mL | 1020 nM | 24 min | 64.2 min | CC(C)C(NC(=O)N(C)Cc1ccccn1)C(=O)N[C@@H](Cc1ccccc1)[C@@H](O)C[C@H](Cc1ccccc1)NC(=O)OCc1ccoc1 (stereo not given in full)
6 | 9.3% | 510 ng·h/mL | 830 nM | 19.8 min | 21.6 min | CC(C)C(NC(=O)N(C)Cc1csc(C(C)(C)C)n1)C(=O)N[C@@H](Cc1ccccc1)[C@@H](O)C[C@H](Cc1ccccc1)NC(=O)OCc1cccnc1 (stereo not given in full)
7 | 60% | 6290 ng·h/mL | 2480 nM | 72 min | 24 min | CC(C)C(NC(=O)N(C)Cc1csc(C2CCC2)n1)C(=O)N[C@@H](Cc1ccccc1)C[C@H](O)[C@H](Cc1ccccc1)NC(=O)OCc1cncs1 (stereo not given in full)
8 | 0.8% | 30 ng·h/mL | 100 nM | 12 min | 37.2 min | CC(C)c1ncc(COC(=O)NC(C(=O)N[C@@H](Cc2ccccc2)[C@@H](O)C[C@H](Cc2ccccc2)NC(=O)OCc2cccnc2)C(C)C)s1 (stereo not given in full)
9 | 35% | 1850 ng·h/mL | 2050 nM | 9 min | 15.6 min | CC(C)c1nc(CN(C)C(=O)NC(C(=O)N[C@@H](Cc2ccccc2)C[C@H](O)[C@H](Cc2ccccc2)NC(=O)OCc2cnco2)C(C)C)co1 (stereo not given in full)
10 | 3.3% | 160 ng·h/mL | 560 nM | 9 min | 25.8 min | COc1ccc(COC(=O)NC(C(=O)N[C@@H](Cc2ccccc2)[C@@H](O)C[C@H](Cc2ccccc2)NC(=O)OCc2cccnc2)C(C)C)cn1 (stereo not given in full)
11 | 32% | 1660 ng·h/mL | 3390 nM | 17.4 min | 40.8 min | Cc1cccc(CN(C)C(=O)NC(C(=O)N[C@@H](Cc2ccccc2)C[C@H](O)[C@H](Cc2ccccc2)NC(=O)OCc2cccnc2)C(C)C)n1 (stereo not given in full)
12 | 8.5% | 570 ng·h/mL | 2530 nM | 9 min | 39.6 min | CC(C)C(NC(=O)OCc1nccs1)C(=O)N[C@@H](Cc1ccccc1)C[C@H](O)[C@H](Cc1ccccc1)NC(=O)OCc1cccnc1 (stereo not given in full)
13 | 16% | 810 ng·h/mL | 1260 nM | 15 min | 44.4 min | CCc1cccc(COC(=O)NC(C(=O)N[C@@H](Cc2ccccc2)[C@@H](O)C[C@H](Cc2ccccc2)NC(=O)OCc2cccnc2)C(C)C)n1 (stereo not given in full)
14 | 5.9% | 210 ng·h/mL | 480 nM | 18 min | 16.8 min | Cc1cncc(COC(=O)NC(C(=O)N[C@@H](Cc2ccccc2)[C@@H](O)C[C@H](Cc2ccccc2)NC(=O)OCc2cccnc2)C(C)C)c1 (stereo not given in full)
15 | 47% | 4240 ng·h/mL | 2040 nM | 22.2 min | 73.8 min | CC(C)C(NC(=O)OCc1ccccn1)C(=O)N[C@@H](Cc1ccccc1)C[C@H](O)[C@H](Cc1ccccc1)NC(=O)OCc1cncs1 (stereo not given in full)
16 | 7.5% | 610 ng·h/mL | 1150 nM | 19.8 min | 44.4 min | Cc1cccc(COC(=O)NC(C(=O)N[C@@H](Cc2ccccc2)[C@@H](O)C[C@H](Cc2ccccc2)NC(=O)OCc2cccnc2)C(C)C)n1 (stereo not given in full)
17 | 28% | 2370 ng·h/mL | 2080 nM | 42 min | 27.6 min | Cc1ncc(COC(=O)N[C@@H](Cc2ccccc2)C[C@H](O)[C@H](Cc2ccccc2)NC(=O)C(NC(=O)N(C)Cc2csc(C(C)C)n2)C(C)C)s1 (stereo not given in full)
18 | 16% | 900 ng·h/mL | 1740 nM | 6 min | 117 min | Cc1cccc(COC(=O)NC(C(=O)N[C@@H](Cc2ccccc2)C[C@H](O)[C@H](Cc2ccccc2)NC(=O)OCc2cccnc2)C(C)C)n1 (stereo not given in full)
19 | 23% | 2860 ng·h/mL | 3600 nM | 15 min | 240 min | CC(NC(=O)N(C)Cc1coc(C(C)C)n1)C(=O)N[C@@H](Cc1ccccc1)C[C@H](O)[C@H](Cc1ccccc1)NC(=O)OCc1cncs1 (stereo not given in full)

Row | bioavailability [1] | AUC (in vivo [2]) | Cmax (in vivo [3]) | Tmax (in vivo [4]) | half-life (in vivo [5]) | Structure (SMILES)
20 | 6.3% | 240 ng·h/mL | 450 nM | 6 min | 34.2 min | Cc1ccc(COC(=O)NC(C(=O)N[C@@H](Cc2ccccc2)[C@@H](O)C[C@H](Cc2ccccc2)NC(=O)OCc2cccnc2)C(C)C)cn1 (stereo not given in full)
21 | 1.5% | 70 ng·h/mL | 300 nM | 6 min | 71.4 min | COc1cncc(COC(=O)NC(C(=O)N[C@@H](Cc2ccccc2)[C@@H](O)C[C@H](Cc2ccccc2)NC(=O)OCc2cccnc2)C(C)C)c1 (stereo not given in full)
22 | 23% | 2650 ng·h/mL | 1590 nM | 34.8 min | 33.6 min | CC(C)c1nc(CN(C)C(=O)NC(C(=O)N[C@@H](Cc2ccccc2)C[C@H](O)[C@H](Cc2ccccc2)NC(=O)OCc2cnco2)C(C)C)cs1 (stereo not given in full)
23 | 22% | 1220 ng·h/mL | 2180 nM | 9 min | 73.2 min | CC(C)C(NC(=O)N(C)Cc1ccccn1)C(=O)N[C@@H](Cc1ccccc1)C[C@H](O)[C@H](Cc1ccccc1)NC(=O)OCc1cccnc1 (stereo not given in full)
24 | 31% | 1600 ng·h/mL | 1680 nM | 30 min | 54 min | CC(NC(=O)N(C)Cc1csc(C(C)C)n1)C(=O)N[C@@H](Cc1ccccc1)C[C@H](O)[C@H](Cc1ccccc1)NC(=O)OCc1cncs1 (stereo not given in full)
25 | 9.2% | 360 ng·h/mL | 410 nM | 27 min | 27 min | Cc1ncsc1CCOC(=O)NC(C(=O)N[C@@H](Cc1ccccc1)[C@@H](O)C[C@H](Cc1ccccc1)NC(=O)OCc1cccnc1)C(C)C (stereo not given in full)
26 | 24% | 950 ng·h/mL | 1650 nM | 15 min | 45 min | CC(C)c1nc(CN(C)C(=O)NC(C(=O)N[C@@H](Cc2ccccc2)[C@@H](O)C[C@H](Cc2ccccc2)NC(=O)OCc2cccnc2)C(C)C)cs1 (stereo not given in full)
27 | 23% | 730 ng·h/mL | 1530 nM | 9 min | 31.2 min | CCc1cccc(CN(C)C(=O)NC(C(=O)N[C@@H](Cc2ccccc2)[C@@H](O)C[C@H](Cc2ccccc2)NC(=O)OCc2cccnc2)C(C)C)n1 (stereo not given in full)
28 | 26% | 1060 ng·h/mL | 2100 nM | 9 min | 43.2 min | Cc1nc(CN(C)C(=O)NC(C(=O)N[C@@H](Cc2ccccc2)C[C@H](O)[C@H](Cc2ccccc2)NC(=O)OCc2cccnc2)C(C)C)cs1 (stereo not given in full)
29 | 57% | 8910 ng·h/mL | 8010 nM | 19.8 min | 120 min | CCc1nc(CN(C)C(=O)NC(C(=O)N[C@@H](Cc2ccccc2)C[C@H](O)[C@H](Cc2ccccc2)NC(=O)OCc2cncs2)C(C)C)co1 (stereo not given in full)
30 | 20% | 870 ng·h/mL | 1460 nM | 12 min | 44.4 min | CCc1nc(CN(C)C(=O)NC(C(=O)N[C@@H](Cc2ccccc2)[C@@H](O)C[C@H](Cc2ccccc2)NC(=O)OCc2cccnc2)C(C)C)cs1 (stereo not given in full)
31 | 0.3% | 30 ng·h/mL | 140 nM | 6 min | 30 min | CC(C)C(NC(=O)OCc1cncc(N)c1)C(=O)N[C@@H](Cc1ccccc1)C[C@H](O)[C@H](Cc1ccccc1)NC(=O)OCc1cccnc1 (stereo not given in full)
32 | 16% | 1700 ng·h/mL | 2290 nM | 105 min | 120 min | CC(C)c1nc(CN(C)C(=O)NC(C(=O)N[C@@H](Cc2ccccc2)[C@@H](O)C[C@H](Cc2ccccc2)NC(=O)OCc2cncs2)C(C)C)cs1 (stereo not given in full)
33 | 15% | 1080 ng·h/mL | 2010 nM | 15 min | 89.4 min | Cc1nc(CN(C)C(=O)NC(C(=O)N[C@@H](Cc2ccccc2)[C@@H](O)C[C@H](Cc2ccccc2)NC(=O)OCc2cccnc2)C(C)C)cs1 (stereo not given in full)
34 | 17% | 1050 ng·h/mL | 1490 nM | 15 min | 72 min | CCc1nc(CN(C)C(=O)NC(C(=O)N[C@@H](Cc2ccccc2)C[C@H](O)[C@H](Cc2ccccc2)NC(=O)OCc2cccnc2)C(C)C)cs1 (stereo not given in full)
35 | 0.8% | 50 ng·h/mL | 440 nM | 6 min | 10.2 min | COc1cncc(CN(C)C(=O)NC(C(=O)N[C@@H](Cc2ccccc2)[C@@H](O)C[C@H](Cc2ccccc2)NC(=O)OCc2cccnc2)C(C)C)c1 (stereo not given in full)
36 | 16% | 1240 ng·h/mL | 2290 nM | 30 min | 33.6 min | COCc1nc(CN(C)C(=O)NC(C(=O)N[C@@H](Cc2ccccc2)[C@@H](O)C[C@H](Cc2ccccc2)NC(=O)OCc2cccnc2)C(C)C)cs1 (stereo not given in full)
37 | 6.4% | 330 ng·h/mL | 1130 nM | 15 min | 18 min | Cc1ncc(CN(C)C(=O)NC(C(=O)N[C@@H](Cc2ccccc2)C[C@H](O)[C@H](Cc2ccccc2)NC(=O)OCc2cccnc2)C(C)C)nc1C (stereo not given in full)
